Laboratory results: ChEMBL document CHEMBL1201862, “PubChem BioAssay data set” (2004)
Calls of active or inactive are those of the source.

Key:
[1] = biological target: Diphosphomevalonate decarboxylase (Streptococcus pneumoniae serotype 2 (strain D39 / NCTC 7466), UniProt Q9FD53); experiment: diphosphomevalonate decarboxylase inhibitor confirmation – biochemical, cuvette format, coupled NADH fluorescence (AID 1028); type: functional
[2] = toxicity to HepG2 liver cells – cell-based, plate reader, dry powder, set 6, cytotoxicity control, dose response (AID 743311); type: functional
[3] = biological target: Mitogen-activated protein kinase 10 (Homo sapiens, UniProt P53779); experiment: Dose response biochemical screening assay for inhibitors of c-Jun N-Terminal Kinase 3 (JNK3). [Related pubchem assays: 746 ]
[4] = biological target: Ubiquitin carboxyl-terminal hydrolase BAP1 (Homo sapiens, UniProt Q92560); experiment: inhibition of BAP1 ubiquitin hydrolase activity – biochemical, dose response (AID 714); type: functional
[5] = biological target: T1, Long-chain-fatty-acid--AMP ligase FadD28 (Mycobacterium tuberculosis, UniProt P9WQ59); experiment: Fluorescence polarization aasay to screen for inhibitors that compete for the binding of FadD28 to a bisubstrate Measured in Biochemical System Using Plate Reader - 2147-01_Inhibitor_Dose_CherryPick_Activity.; type: functional, Mycobacterium tuberculosis H37Rv
T1 sequence (P9WQ59 whole entry): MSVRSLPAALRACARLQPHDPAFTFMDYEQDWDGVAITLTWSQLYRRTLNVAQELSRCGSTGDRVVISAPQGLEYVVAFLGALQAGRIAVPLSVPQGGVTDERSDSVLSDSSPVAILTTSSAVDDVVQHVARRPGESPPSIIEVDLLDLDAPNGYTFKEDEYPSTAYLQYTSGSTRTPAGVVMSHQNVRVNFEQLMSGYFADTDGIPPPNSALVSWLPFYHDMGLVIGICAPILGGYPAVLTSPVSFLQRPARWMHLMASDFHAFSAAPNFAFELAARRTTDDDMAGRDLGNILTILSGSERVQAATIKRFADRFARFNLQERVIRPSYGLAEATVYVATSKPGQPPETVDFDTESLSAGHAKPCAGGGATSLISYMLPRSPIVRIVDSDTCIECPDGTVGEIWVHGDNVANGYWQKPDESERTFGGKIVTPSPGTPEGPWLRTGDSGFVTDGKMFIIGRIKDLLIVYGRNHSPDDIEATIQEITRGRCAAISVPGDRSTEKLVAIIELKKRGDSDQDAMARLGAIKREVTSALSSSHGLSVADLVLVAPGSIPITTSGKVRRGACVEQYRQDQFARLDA

[6] = biological target: T2, Replicative DNA helicase DnaB (Mycobacterium tuberculosis, UniProt P9WMR3); experiment: DnaB intein splicing inhibitors, dose response, biochemical, cell-free fluorescence (AID 449749); type: functional
T2 sequence (P9WMR3 whole entry): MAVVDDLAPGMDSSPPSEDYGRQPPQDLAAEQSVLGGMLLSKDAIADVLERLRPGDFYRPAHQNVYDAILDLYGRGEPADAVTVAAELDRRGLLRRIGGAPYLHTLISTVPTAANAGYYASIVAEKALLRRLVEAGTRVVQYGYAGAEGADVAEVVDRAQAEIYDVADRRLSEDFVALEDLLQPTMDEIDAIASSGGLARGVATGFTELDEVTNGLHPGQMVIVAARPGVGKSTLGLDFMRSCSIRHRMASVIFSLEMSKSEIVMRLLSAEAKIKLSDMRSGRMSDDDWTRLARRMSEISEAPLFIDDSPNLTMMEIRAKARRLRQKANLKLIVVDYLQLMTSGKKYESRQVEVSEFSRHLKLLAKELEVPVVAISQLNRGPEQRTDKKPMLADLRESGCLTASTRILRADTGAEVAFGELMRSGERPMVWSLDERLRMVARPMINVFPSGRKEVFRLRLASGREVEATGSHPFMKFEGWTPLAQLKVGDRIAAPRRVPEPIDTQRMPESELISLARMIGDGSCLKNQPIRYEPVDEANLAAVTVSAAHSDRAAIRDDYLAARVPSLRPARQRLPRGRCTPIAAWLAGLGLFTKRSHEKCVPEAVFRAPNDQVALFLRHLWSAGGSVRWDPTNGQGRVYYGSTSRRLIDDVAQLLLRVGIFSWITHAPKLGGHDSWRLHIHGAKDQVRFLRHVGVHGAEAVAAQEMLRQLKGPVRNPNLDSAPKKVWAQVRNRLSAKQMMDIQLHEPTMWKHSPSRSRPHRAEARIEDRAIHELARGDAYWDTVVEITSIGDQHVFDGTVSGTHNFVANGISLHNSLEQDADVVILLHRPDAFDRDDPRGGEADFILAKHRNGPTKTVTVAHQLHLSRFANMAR

[7] = biological target: T3, Protein RecA (Mycobacterium tuberculosis, UniProt P9WHJ3); experiment: Fluorescence Cell-Free Homogeneous Dose Retest to Identify Inhibitors of RecA-Intein Splicing Activity. [Related pubchem assays (depositor defined):AID2097, AID2223, AID489010, AID492950]; type: functional
T3 sequence (P9WHJ3 whole entry): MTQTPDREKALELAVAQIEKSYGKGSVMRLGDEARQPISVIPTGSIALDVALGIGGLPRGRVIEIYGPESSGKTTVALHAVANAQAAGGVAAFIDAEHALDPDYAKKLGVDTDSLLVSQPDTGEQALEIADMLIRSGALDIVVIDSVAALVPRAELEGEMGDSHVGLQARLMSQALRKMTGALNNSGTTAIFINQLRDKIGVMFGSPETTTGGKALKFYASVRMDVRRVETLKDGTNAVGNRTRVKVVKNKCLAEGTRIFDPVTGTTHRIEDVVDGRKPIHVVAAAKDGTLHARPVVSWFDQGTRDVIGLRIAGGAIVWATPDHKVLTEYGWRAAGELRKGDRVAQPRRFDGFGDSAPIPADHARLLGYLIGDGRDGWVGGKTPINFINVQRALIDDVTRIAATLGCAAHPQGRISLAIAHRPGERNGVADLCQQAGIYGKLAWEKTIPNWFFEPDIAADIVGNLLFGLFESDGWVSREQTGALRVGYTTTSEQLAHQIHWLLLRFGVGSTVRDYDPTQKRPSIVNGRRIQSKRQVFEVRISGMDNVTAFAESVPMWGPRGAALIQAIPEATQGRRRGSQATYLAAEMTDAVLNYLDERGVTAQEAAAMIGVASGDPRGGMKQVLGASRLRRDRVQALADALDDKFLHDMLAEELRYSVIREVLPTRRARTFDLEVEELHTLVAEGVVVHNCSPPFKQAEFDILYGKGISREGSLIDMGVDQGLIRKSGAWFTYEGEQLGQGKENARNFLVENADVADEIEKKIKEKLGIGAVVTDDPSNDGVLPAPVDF

[8] = biological target: Protein Tat (Human immunodeficiency virus type 1 group M subtype B (isolate HXB2)(HIV-1), UniProt P04608); type: functional;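 also: tat binding to TAR RNA read out by fluorescence polarization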
[9] = viability loss in THP-1 monocytes – THP-1 cells, cytotoxicity control for Vif-APOBEC3G degradation inhibitor project, dose response (AID 1117359); type: functional; settings: THP-1
[10] = biological target: Induced myeloid leukemia cell differentiation protein Mcl-1 (Homo sapiens, UniProt Q07820); type: functional
[11] = biological target: Glutathione-S-transferase (Schistosoma japonicum, UniProt Q26513); experiment: GST-antibody interaction or FRET quenching – biochemical, TR-FRET, artefact control for Vif-APOBEC3G degradation inhibitor project, dose response (AID 1117362); type: functional
[12] = rise of 2N DNA cells, HeLa – IC50, dose response (AID 1117349); type: functional, cell-based
[13] = CellTiter-Glo luminescence survival assay, SW480 colon tumor line, concentration-response curve, half-maximal inhibitory concentration (AID 1117338); type: functional
[14] = RKO cell viability reduction, dose response, CellTiter-Glo luminescence (AID 1117322); type: functional
[15] = cytotoxicity toward HCT116 cells – cell-based, CellTiter-Glo luminescence, IC50, dose response (AID 1117332); type: functional; settings: HCT-116
[16] = SNU-C1 cell viability reduction, dose response, CellTiter-Glo luminescence (AID 1117323); type: functional, cell-based
[17] = cytotoxicity toward Colo320 cells – cell-based, CellTiter-Glo luminescence, IC50, dose response (AID 1117334); type: functional; settings: COLO 320
[18] = rise of 4N DNA cells, HeLa – IC50, dose response (AID 1117351); type: functional, cell-based
[19] = cytotoxicity toward HT-29 cells – cell-based, CellTiter-Glo luminescence, IC50, dose response (AID 1117330); type: functional
[20] = Reduced DLD-1 viability, concentration-response, CellTiter-Glo luminescence (AID 1117352); type: functional
[21] = HCT116 cell viability decrease, GSK3B pretreatment – CellTiter-Glo, IC50, dose response (AID 1117339); type: functional; settings: HCT-116

Glutathione-S-transferase, sequence (Q26513 whole entry): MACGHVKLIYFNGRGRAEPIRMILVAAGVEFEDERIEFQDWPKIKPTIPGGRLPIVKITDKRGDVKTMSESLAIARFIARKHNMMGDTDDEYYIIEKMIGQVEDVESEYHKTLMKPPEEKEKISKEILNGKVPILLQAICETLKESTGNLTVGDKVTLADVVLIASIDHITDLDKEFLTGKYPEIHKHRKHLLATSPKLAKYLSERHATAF
Protein Tat, sequence (P04608 whole entry): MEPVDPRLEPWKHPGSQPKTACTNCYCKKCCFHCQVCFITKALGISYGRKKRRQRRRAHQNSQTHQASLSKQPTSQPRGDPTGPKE
Ubiquitin carboxyl-terminal hydrolase BAP1, sequence (Q92560 whole entry): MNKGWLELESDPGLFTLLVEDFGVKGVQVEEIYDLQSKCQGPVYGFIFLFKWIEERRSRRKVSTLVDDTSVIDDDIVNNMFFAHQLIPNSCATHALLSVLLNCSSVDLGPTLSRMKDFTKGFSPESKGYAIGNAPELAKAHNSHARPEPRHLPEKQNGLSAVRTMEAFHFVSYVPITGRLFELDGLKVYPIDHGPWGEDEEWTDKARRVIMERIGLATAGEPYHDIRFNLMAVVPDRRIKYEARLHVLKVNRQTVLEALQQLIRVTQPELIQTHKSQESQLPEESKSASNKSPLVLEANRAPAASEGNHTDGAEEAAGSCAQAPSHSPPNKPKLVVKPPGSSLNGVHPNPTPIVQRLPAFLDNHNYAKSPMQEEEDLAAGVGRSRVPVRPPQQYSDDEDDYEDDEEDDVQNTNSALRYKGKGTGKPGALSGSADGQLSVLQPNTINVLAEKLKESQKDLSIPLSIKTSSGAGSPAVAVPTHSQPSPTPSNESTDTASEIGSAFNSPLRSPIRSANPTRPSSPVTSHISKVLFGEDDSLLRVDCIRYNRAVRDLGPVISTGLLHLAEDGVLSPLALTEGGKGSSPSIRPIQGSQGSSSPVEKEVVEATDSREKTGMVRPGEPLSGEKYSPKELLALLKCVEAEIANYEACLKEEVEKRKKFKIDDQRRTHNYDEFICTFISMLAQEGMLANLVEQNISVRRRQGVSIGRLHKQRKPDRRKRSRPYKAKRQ
Induced myeloid leukemia cell differentiation protein Mcl-1, sequence (Q07820 whole entry): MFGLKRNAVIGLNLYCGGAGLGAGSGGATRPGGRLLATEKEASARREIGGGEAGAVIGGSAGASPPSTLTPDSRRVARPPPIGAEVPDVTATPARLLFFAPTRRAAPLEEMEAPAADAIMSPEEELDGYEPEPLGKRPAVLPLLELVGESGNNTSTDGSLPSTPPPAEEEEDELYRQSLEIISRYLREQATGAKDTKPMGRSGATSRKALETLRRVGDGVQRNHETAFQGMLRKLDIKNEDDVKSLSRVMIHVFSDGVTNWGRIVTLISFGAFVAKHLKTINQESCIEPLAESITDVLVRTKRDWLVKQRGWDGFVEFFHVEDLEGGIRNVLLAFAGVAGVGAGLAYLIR
Diphosphomevalonate decarboxylase, sequence (Q9FD53 whole entry): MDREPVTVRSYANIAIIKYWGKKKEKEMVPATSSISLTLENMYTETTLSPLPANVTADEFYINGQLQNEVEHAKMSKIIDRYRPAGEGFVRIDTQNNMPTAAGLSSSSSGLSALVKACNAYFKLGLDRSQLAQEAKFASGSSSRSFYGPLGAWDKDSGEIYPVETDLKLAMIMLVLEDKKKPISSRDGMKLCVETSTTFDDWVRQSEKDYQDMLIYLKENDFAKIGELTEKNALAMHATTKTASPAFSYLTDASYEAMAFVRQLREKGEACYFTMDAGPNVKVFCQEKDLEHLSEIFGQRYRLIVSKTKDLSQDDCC
Mitogen-activated protein kinase 10, sequence (P53779 whole entry): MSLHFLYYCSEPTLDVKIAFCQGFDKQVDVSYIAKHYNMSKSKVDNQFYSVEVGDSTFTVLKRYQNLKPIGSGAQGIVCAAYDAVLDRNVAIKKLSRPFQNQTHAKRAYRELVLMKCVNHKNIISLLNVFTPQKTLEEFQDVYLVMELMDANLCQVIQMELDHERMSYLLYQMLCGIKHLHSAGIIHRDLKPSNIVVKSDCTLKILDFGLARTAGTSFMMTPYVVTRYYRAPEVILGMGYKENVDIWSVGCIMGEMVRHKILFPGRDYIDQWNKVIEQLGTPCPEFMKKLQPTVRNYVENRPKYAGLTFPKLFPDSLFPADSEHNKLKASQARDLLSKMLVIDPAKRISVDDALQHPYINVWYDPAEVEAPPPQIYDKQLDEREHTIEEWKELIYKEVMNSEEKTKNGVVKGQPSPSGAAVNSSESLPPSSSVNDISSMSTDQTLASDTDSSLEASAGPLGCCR

For O=C(NCc1ccco1)c1ccccc1-n1sc2ccccc2c1=O, the IC50 [1] was 38.7 µM (active).
In the case of O=S(=O)(c1ccc(OCCn2cnc3ccccc32)cc1)N1CCOCC1, the AC50 [2] is reported as > 52 µM (inactive).
In the case of Cc1ccccc1-n1nc(C)c2cc(C(=O)N3CCOCC3)sc21, the IC50 [3] is reported as > 93.1 µM (not active).
In the case of CC1CCCN(S(=O)(=O)c2ccc(NC(=O)Cn3nnc(-c4ccccc4F)n3)cc2)C1 (stereo unspecified), the IC50 [4] is reported as 41.6 µM (not active) and the AC50 [5] is reported as > 100 µM (inactive).
For CC1=CC(C)(C)N2C(=O)/C(=N/c3ccc(O)cc3)c3cccc1c32, the AC50 [6] was > 380 µM (inactive), the EC50 [7] was > 380 µM (inactive) and the IC50 [8] was > 100 µM (active). The CC50 [9] was 9.38 µM (active).
In the case of COc1ccc(O)c(N)c1, the IC50 [10] is reported as 1.53 µM (active) and the IC50 [11] is reported as > 100 µM (active).
In the case of Cc1nc(N)nc(N)c1-c1ccc(Cl)c(Cl)c1 [METOPRINE], the IC50 [12] is reported as > 10 µM (inactive), the IC50 [13] is reported as 0.512 µM (active) and the IC50 [14] is reported as 0.117 µM (active). For the same compound, the IC50 [15] was 0.413 µM (active), the IC50 [16] was 2.16 µM (active) and the IC50 [17] was 2.03 µM (active). The IC50 [18] was > 10 µM (inactive), the IC50 [19] was 0.932 µM (active) and the IC50 [20] was 0.634 µM (active). For the same compound, the IC50 [21] was 0.0589 µM (active).
